Literature values in patent US20260284036A1 (priority 2023, published 2026).

Conditions: administered orally; significant first-pass metabolism

SMILES: C=CCN1CC[C@]23c4c5ccc(O)c4O[C@H]2C(=O)CC[C@@]3(O)[C@H]1C5 [naloxone]
- apparent bioavailability: 1-2%
